From ChEMBL document CHEMBL1201862, “PubChem BioAssay data set” (2004) come the findings set out here.

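Five concentrations, 48 hours, 96-well plates. GI50 is the concentration that inhibits growth by half.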 Calls of active or inactive are those of the source. No stated cut-off is given here; in the data, active = GI50 up to about 1.1 µM and inactive = higher.

Common to all, as to assay: NCI anticancer screen, dose series, 48 h
Experiment [1] concerns SF-268.
For experiment [2], the system named is U-251.
For experiment [3], the system named is SNB-19.
Experiment [4] has as its system NCI-H23.
Experiment [5] has as its system MCF7.
For experiment [6], the system named is COLO 205.
For experiment [7], the system named is HL-60.
Experiment [8] deals with SK-MEL-5.
Experiment [9] deals with SK-OV-3.
In experiment [10] the test system is TK-10.
The test system of experiment [11] is NCI-H226.
Experiment [12] concerns BT-549.
In experiment [13] the test system is HCT-116.
Experiment [14] relates to NCI-H522.
In experiment [15] the test system is UACC-257.
In experiment [16] the test system is Hs-578T.
The test system of experiment [17] is RPMI-8226.
In experiment [18] the test system is K562.
Experiment [19] relates to CCRF-CEM.
Experiment [20] has as its system NCI-H460.

As to `N=C(N)N/N=C/c1c(-c2ccc(Cl)c([N+](=O)[O-])c2)nc2sccn12`, the GI50 was 1.92 µM (inactive) in [1]; 1.67 µM (inactive) in experiment [2]; 1.31 µM (inactive) in experiment [3]; 1.85 µM (inactive) in [4]; 1.37 µM (inactive) in experiment [5]; 1.31 µM (inactive) in experiment [6]. Besides, the GI50 was 1.96 µM (inactive) in [7]; 1.73 µM (inactive) in [8]; 1.78 µM (inactive) in experiment [9]; 1.76 µM (inactive) in experiment [10]; 1.92 µM (inactive) in experiment [11]; 1.89 µM (inactive) in [12]. Also, the GI50 in experiment [13] is 1.37 µM (inactive); in experiment [14], 2.01 µM (inactive); in experiment [15], 1.91 µM (inactive); in experiment [16], 2.05 µM (inactive); in experiment [17], 2.06 µM (inactive); in [18], 0.845 µM (active). Also, the GI50 in experiment [19] was 1.41 µM (inactive); in [20], 1.79 µM (inactive).
On to `COc1c2c(cc3c1-c1c(cc4c(c1OC)OCO4)C1OC3C(C)C1C)OCO2.COc1cc2c(c(OC)c1OC)-c1c(cc3c(c1OC)OCO3)C1OC2C(C)C1C` (stereo not given), for which the GI50 in experiment [1], in experiment [2], in experiment [3], in [4], in [5] and in [6] was > 100 µM (inactive) in each case. Moreover, the GI50 in [7] was 28.9 µM (inactive); in experiment [8] it was 78 µM (inactive); in experiment [9], > 100 µM (inactive); in experiment [10], > 100 µM (inactive); in [11], > 100 µM (inactive); in experiment [12], 61.2 µM (inactive). The GI50 in experiment [13] is 87.3 µM (inactive); in [14], 61.4 µM (inactive); in experiment [15] it was 73.1 µM (inactive); in experiment [16] it was > 100 µM (inactive); in experiment [17], 33 µM (inactive); in experiment [18], 72.8 µM (inactive). For the same molecule, the GI50 in experiment [19] is 40.4 µM (inactive); in [20] it was 55.3 µM (inactive).
As for `CC(C)NC(=O)OCc1c(COC(=O)NC(C)C)c(-c2ccc[n+](COC(=O)C3CC3)c2)n2c1CCC2`, the GI50 in [1] was 28.4 µM (inactive); in [2] it was 56 µM (inactive); in experiment [3] it was > 100 µM (inactive); in [4], 29.6 µM (inactive); in experiment [5], 49.5 µM (inactive); in experiment [6], 70.5 µM (inactive). Besides, the GI50 was 29.6 µM (inactive) in experiment [7]; > 100 µM (inactive) in experiment [8]; 49.5 µM (inactive) in experiment [9]; > 100 µM (inactive) in experiment [10]; > 100 µM (inactive) in experiment [11]; 76.6 µM (inactive) in experiment [12]. For the same molecule, the GI50 is 60.5 µM (inactive) in experiment [13]; 27.1 µM (inactive) in experiment [14]; > 100 µM (inactive) in experiment [15]; 79.3 µM (inactive) in [16]; 60.4 µM (inactive) in experiment [17]; 32.6 µM (inactive) in experiment [18]. Moreover, the GI50 in experiment [19] was 30.4 µM (inactive); in experiment [20] it was 24.2 µM (inactive).
As for `O=C(N(O)c1ccccc1Cl)C(O)(c1ccccc1)c1ccccc1`, the GI50 in experiment [1] is > 100 µM (inactive); in experiment [2] it was 40.6 µM (inactive); in experiment [3] it was > 100 µM (inactive); in [4], > 100 µM (inactive); in experiment [5], 56.8 µM (inactive); in experiment [6] it was > 100 µM (inactive). Moreover, the GI50 is 22.6 µM (inactive) in experiment [7]; 50.6 µM (inactive) in experiment [8]; > 100 µM (inactive) in [9]; 62.4 µM (inactive) in experiment [10]; > 100 µM (inactive) in experiment [11]; 60.1 µM (inactive) in [12]. For the same molecule, the GI50 was > 100 µM (inactive) in experiment [13]; 33 µM (inactive) in experiment [14]; > 100 µM (inactive) in [15]; 42.5 µM (inactive) in experiment [16]; 23.8 µM (inactive) in experiment [17]; 24.4 µM (inactive) in experiment [18]. The GI50 is 15.4 µM (inactive) in experiment [19] and > 100 µM (inactive) in [20].
`O=C1NC(SSC2=NNC3(C(=O)N2)c2ccccc2-c2ccccc23)=NNC12c1ccccc1-c1ccccc12`: the GI50 in experiment [1], in experiment [2], in experiment [3], in experiment [4], in experiment [5] and in experiment [6] was > 10 µM (inactive) throughout. For the same molecule, the GI50 in experiment [7], in [8], in experiment [9], in experiment [10], in [11] and in experiment [12] was > 10 µM (inactive) each time. In addition, the GI50 in [13], in experiment [14], in [15], in experiment [16], in experiment [17] and in experiment [18] was > 10 µM (inactive) throughout. For the same molecule, the GI50 in experiment [19] and in experiment [20] was > 10 µM (inactive) each time.
Consider `CC1=NN2C(=N)/C(=C/c3ccccc3)C(=O)N=C2S1`, for which the GI50 in [1] is > 100 µM (inactive); in experiment [2] it was > 100 µM (inactive); in experiment [3], > 100 µM (inactive); in [4], > 100 µM (inactive); in experiment [5] it was 0.867 µM (active); in experiment [6], > 100 µM (inactive). Besides, the GI50 in experiment [7], in [8], in [9], in [10], in [11] and in [12] was > 100 µM (inactive) throughout. The GI50 in experiment [13] was > 100 µM (inactive); in experiment [14] it was > 36.9 µM (inactive); in experiment [15] it was > 100 µM (inactive); in [16], > 100 µM (inactive); in experiment [17] it was > 100 µM (inactive); in experiment [18] it was > 100 µM (inactive). The GI50 in [19] and in experiment [20] was > 100 µM (inactive) in each case.
Regarding `COc1nc(Cl)c(Cl)c(Cl)n1.COc1nc(Cl)nc(Cl)c1Cl`, the GI50 in experiment [1] was 6.18 µM (inactive); in experiment [2], 3.78 µM (inactive); in experiment [3], 4.97 µM (inactive); in [4] it was 6.71 µM (inactive); in experiment [5] it was 2.62 µM (inactive); in experiment [6], 14.2 µM (inactive). The GI50 in [7] is 5.47 µM (inactive); in experiment [8], 15.2 µM (inactive); in experiment [9] it was 10.3 µM (inactive); in [10], 8.73 µM (inactive); in [11], 42.5 µM (inactive); in experiment [12], 9.93 µM (inactive). In addition, the GI50 was 8.2 µM (inactive) in experiment [13]; 0.675 µM (active) in [14]; 3.83 µM (inactive) in experiment [15]; 3.91 µM (inactive) in [16]; 0.938 µM (active) in experiment [17]; 0.859 µM (active) in [18]. Moreover, the GI50 was 2.7 µM (inactive) in experiment [19] and 5.6 µM (inactive) in experiment [20].
For `COc1cccc(N2C(=O)CSC2c2cc(OC)c(OC)c(OC)c2)c1` (stereo not given), the GI50 in experiment [1] is > 100 µM (inactive); in experiment [2] it was 34.8 µM (inactive); in experiment [3], 23.1 µM (inactive); in [4] it was 29.2 µM (inactive); in experiment [5] it was 19.4 µM (inactive); in [6] it was 23 µM (inactive). Besides, the GI50 was 31.7 µM (inactive) in experiment [7]; 19.8 µM (inactive) in [8]; 26.7 µM (inactive) in experiment [9]; > 100 µM (inactive) in [10]; 26.7 µM (inactive) in [11]; 22.1 µM (inactive) in experiment [12]. Further, the GI50 was 31.8 µM (inactive) in experiment [13]; 26.4 µM (inactive) in [14]; 20.9 µM (inactive) in [15]; 48.2 µM (inactive) in [16]; 29 µM (inactive) in [17]; 25.9 µM (inactive) in experiment [18]. Also, the GI50 in experiment [19] is 19.1 µM (inactive); in [20], 27.8 µM (inactive).
For `COc1ccc(-c2csc(-n3c(-c4ccccc4)nc4c(Br)cc(Br)cc4c3=O)n2)cc1`, the GI50 is 15.6 µM (inactive) in experiment [1]; 28.7 µM (inactive) in [2]; 34 µM (inactive) in experiment [3]; 14.4 µM (inactive) in [4]; 35.1 µM (inactive) in experiment [5]; 37 µM (inactive) in experiment [6]. Also, the GI50 in [7] is 20.2 µM (inactive); in [8] it was 18.2 µM (inactive); in experiment [9], 28.1 µM (inactive); in experiment [10], 51.5 µM (inactive); in [11] it was 27.7 µM (inactive); in [12], 17.8 µM (inactive). The GI50 is 22.5 µM (inactive) in experiment [13]; 19.8 µM (inactive) in experiment [14]; 30.3 µM (inactive) in experiment [15]; 41 µM (inactive) in experiment [16]; 7.74 µM (inactive) in experiment [17]; 20.8 µM (inactive) in [18]. In addition, the GI50 in experiment [19] is 13.1 µM (inactive); in experiment [20] it was 34.2 µM (inactive).
